Source: publication PMC2988090 (Nature, 2010)
Entries after “also recorded” stand apart in the source; their conditions may differ.

Biological target: T1, dialyzed COI1-ASK1 in the presence of JAZ1 (Arabidopsis thaliana, UniProt O04197+Q9LMA8)
T1 sequence (O04197 1-592): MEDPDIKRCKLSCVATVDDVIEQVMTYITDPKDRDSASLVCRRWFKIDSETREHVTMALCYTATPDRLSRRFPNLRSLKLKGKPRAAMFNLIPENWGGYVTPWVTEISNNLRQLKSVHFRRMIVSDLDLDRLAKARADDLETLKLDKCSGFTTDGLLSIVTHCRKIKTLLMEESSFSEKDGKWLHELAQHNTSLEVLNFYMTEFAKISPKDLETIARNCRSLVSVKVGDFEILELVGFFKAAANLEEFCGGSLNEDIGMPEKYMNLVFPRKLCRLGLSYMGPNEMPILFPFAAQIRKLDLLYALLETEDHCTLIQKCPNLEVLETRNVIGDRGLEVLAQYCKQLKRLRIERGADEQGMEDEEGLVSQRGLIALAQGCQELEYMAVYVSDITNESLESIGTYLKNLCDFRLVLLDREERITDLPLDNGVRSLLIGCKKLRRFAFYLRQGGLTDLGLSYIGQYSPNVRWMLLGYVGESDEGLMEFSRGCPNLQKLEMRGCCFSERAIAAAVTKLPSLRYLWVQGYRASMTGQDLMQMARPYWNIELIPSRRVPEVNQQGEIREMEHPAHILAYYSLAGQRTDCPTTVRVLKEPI
T1 sequence (Q39255 1-160 partner): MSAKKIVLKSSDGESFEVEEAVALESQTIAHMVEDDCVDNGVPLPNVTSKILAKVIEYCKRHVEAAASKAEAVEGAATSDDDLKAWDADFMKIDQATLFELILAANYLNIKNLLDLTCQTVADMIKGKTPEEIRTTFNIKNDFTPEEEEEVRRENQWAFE
T1 sequence (Q9LMA8 1-253): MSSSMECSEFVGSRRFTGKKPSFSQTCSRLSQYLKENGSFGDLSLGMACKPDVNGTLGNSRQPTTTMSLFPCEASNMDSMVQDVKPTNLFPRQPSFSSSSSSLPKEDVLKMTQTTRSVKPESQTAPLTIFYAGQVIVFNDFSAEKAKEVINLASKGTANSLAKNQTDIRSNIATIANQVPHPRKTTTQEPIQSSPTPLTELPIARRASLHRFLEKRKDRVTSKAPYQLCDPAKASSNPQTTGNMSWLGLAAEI
Assay: inositol phosphate reconstitution assay
Type: binding
Settings: dialyzed COI1, 100 nM ^3H-coronatine, 1 µM inositol phosphate

support of COI1-JAZ1 co-receptor ligand binding activity | SMILES
not favorable for activity | O=P(O)(O)OC1C(OP(=O)(O)O)C(OP(=O)(O)O)C(OP(=O)(O)O)C(OP(=O)(O)O)C1OP(=O)(O)O (stereo not drawn) [InsP6, inositol hexakisphosphate]
does not | O=P(O)(O)O[C@@H]1[C@H](O)[C@H](O)[C@@H](OP(=O)(O)O)[C@H](OP(=O)(O)O)[C@H]1O [inositol (1,4,5) triphosphate]

SMILES | support of COI1-JAZ1 co-receptor ligand binding activity
O=P(O)(O)O[C@H]1[C@H](OP(=O)(O)O)[C@@H](OP(=O)(O)O)[C@@H](O)[C@@H](O)[C@@H]1OP(=O)(O)O [inositol (1,4,5,6) tetrakisphosphate] | supports the activity; also recorded: support high affinity hormone binding
